Test results taken from patent publication US10202366B2, “Methods of promoting wound healing using CRM1 inhibitors” (Karyopharm Therapeutics Inc., priority 2013, dated 2019).

Tested on: MM1.S cells
Experiment: MTT cell proliferation assay
Format: cell-based
Conditions: Homo sapiens
Experimental: The MTT cell proliferation assay was used to study the cytotoxic properties of certain compounds. The assay was performed according to the method described by Roche Molecular Biochemicals, with minor modifications. The assay is based on the cleavage of the tetrazolium salt, MTT, in the presence of an electron-coupling reagent. The water-insoluble formazan salt produced must be solubilized in an additional step. Cells grown in a 96-well tissue culture plate were incubated with the MTT solution for approximately 4 hours. After this incubation period, a water-insoluble formazan dye formed. After solubilization, the formazan dye was quantitated using a scanning multi-well spectrophotometer (ELISA reader). […] The cells were seeded at 5,000-10,000 cells in each well of 96-well plate in 100 μL of fresh culture medium and were allowed to attach overnight. The stock solutions of the compounds were diluted in 100 μL cell culture medium to obtain eight concentrations of each test compound, ranging from 1 nM to 30 μM. […] All optical densities were measured at 490 nm using a Vmax Kinetic Microplate Reader (Molecular Devices). In most cases, the assay was performed in duplicate and the results were presented as a mean percent inhibition to the negative control±SE. The following formula was used to calculate the percent of inhibition: Inhibition (%)=(1−(ODo/OD))×100. […]

| SMILES | IC50 [nM] |
| --- | --- |
| CC(C)Oc1cc(-c2ncn(/C=C\C(=O)OCc3cncnc3)n2)cc(C(F)(F)F)c1 [Compound 129, Pyrimidin-5-Ylmethyl (Z)-3-(3-(3-Isopropoxy-5-(Trifluoromethyl)Phenyl)-1H-1,2,4-Triazol-1-Yl)Acrylate] | 20 |
| CC(C)Oc1cc(-c2ncn(/C=C\C(=O)OCc3cnccn3)n2)cc(C(F)(F)F)c1 [Compound 130, Pyrazin-2-Ylmethyl (Z)-3-(3-(3-Isopropdxy-5-(Trifluoromethyl)Phenyl)-1h-1,2,4-Triazol-1-Yl)Acrylate] | 4 |
